Test results reported in EP2457441A1, “Insecticide composition” (priority 2010, dated 2012).

How the values were obtained:
[1] = species and route not given; cited from earlier work
Toxicity (LD50/DL50) = conditions: comparison of LD50 values

Row | Molecule | DL50 [1] | toxicity relative to common salt (Toxicity (LD50/DL50)) | toxicity relative to sugar (Toxicity (LD50/DL50)) | LD50 [1] [mg/kg]
1 | COC(C)(C)CCC[C@H](C)C/C=C/C(C)=C/C(=O)OC(C)C [S-METHOPRENE] | above 10000 mg/kg |  |  | 
2 | CCOc1ccc(C(C)(C)COCc2cccc(Oc3ccccc3)c2)cc1 [ETOFENPROX] |  | about 15 times less | two times less | 42880
3 | common salt |  |  |  | 3000
